{"source": "patent US10874598B2", "about": "“Compositions and methods for treating damaged hair” (AVON PRODUCTS, INC., priority 2013, dated 2020)", "assay": "Tensile load required to break hair fibers (break load)", "procedure": "A commercial rinse-off conditioner formulation was used as a control vehicle for the study. An active formulation was prepared by adding 1% (w/w) of TDPA to the control vehicle. Three samples of treated hair were prepared: untreated, treatment with the control vehicle, and treatment with the control vehicle plus 1% TDPA. The treatments were applied to hair tresses that had been previously damaged by artificially color with an oxidative dye. The treatments were repeated five times. The overall condition of the hair fibers was determined by measuring the tensile load required to break the fibers and the results of 30 fibers were averaged. […] In stark contrast, the active formula, having 1% TDPA, gave a break load of about 82 gm. This correlates to an improvement in the tensile strength of about 20%. The formulas used in the testing protocol were as follows: […]"}
{"smiles": "O=C(O)CCSCCC(=O)O", "note": "[TDPA, 3,3′-thiodipropionic acid]", "values": [{"measurement": "improvement in the tensile strength", "setting": "active formula with 1% TDPA (about 82 gm), untreated hair about 68 gm, control vehicle about 73 gm", "result": "about 20%"}, {"measurement": "break load (tensile load required to break the fibers)", "setting": "active formula: commercial rinse-off conditioner control vehicle plus 1% (w/w) TDPA, treatments repeated five times, results of 30 fibers averaged, FIG. 1", "result": "about 82 gm"}]}
